Holding throughout (assay): relative viability (nuclei count vs DMSO), 5 days (fraction); higher = more cells survive
Compound in test [1]: O=c1[nH]cc(F)c(=O)[nH]1 [5-Fluorouracil] + Cc1nc(NC(=O)N2CCC[C@H]2C(N)=O)sc1-c1ccnc(C(C)(C)C(F)(F)F)c1 [Alpelisib] (partner 2 µM)
The essentials: (§1)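 The day after seeding in 1536-well plates, lung cancer cell lines were treated by pin tool with a single drug, or with a fixed anchor-drug dose together with five library-drug doses (not always all listed) in √10 steps. After 5 days, a combined fix-and-stain solution (final 0.05% Triton X-100, 1% formaldehyde, 1 ug/ml Hoechst) was added. Nuclei counted on 4× images gave relative viability as treated counts over vehicle counts, reported as the median of duplicate plates.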

Compound in test [2]: CN[C@@H]1C[C@H]2O[C@@](C)([C@@H]1OC)n1c3ccccc3c3c4c(c5c6ccccc6n2c5c31)C(=O)NC4 [Staurosporine] + COc1cc2c(Oc3ccc(NC(=O)C4(C(=O)Nc5ccc(F)cc5)CC4)cc3F)ccnc2cc1OCCCN1CCOCC1 [Foretinib] (partner 0.25 µM)
The essentials:
as §1

Compound in test [3]: CN[C@@H]1C[C@H]2O[C@@](C)([C@@H]1OC)n1c3ccccc3c3c4c(c5c6ccccc6n2c5c31)C(=O)NC4 [Staurosporine] + C[C@]1(O)C[C@@H](c2nc(-c3ccc4ccc(-c5ccccc5)nc4c3)c3c(N)nccn32)C1 [Linsitinib] (partner 1 µM)
The method, boiled down:
as §1

Compound in test [4]: O=c1[nH]cc(F)c(=O)[nH]1 [5-Fluorouracil] + Cc1cc(Nc2cc(N3CCN(C)CC3)nc(Sc3ccc(NC(=O)C4CC4)cc3)n2)n[nH]1 [Tozasertib] (partner 0.1 µM)
The method, boiled down:
as §1

From the supplement of paper PMC10307832 come the findings set out here.

Consider UMC-11, for which the relative viability in test [1] (first compound 0.02 µM) was 0.792; in test [1] (first compound 0.2 µM), 0.645; in test [1] (first compound 2 µM), 0.326; in test [2] (first compound 0.005 µM), 1.02; in test [2] (first compound 0.01581 µM), 0.574; in test [2] (first compound 0.05 µM), 0.326. Besides, the relative viability was 0.116 in test [2] (first compound 0.1581 µM); 0.077 in test [2] (first compound 0.5 µM); 0.901 in test [3] (first compound 0.005 µM); 0.569 in test [3] (first compound 0.01581 µM); 0.583 in test [3] (first compound 0.05 µM); 0.126 in test [3] (first compound 0.1581 µM). Further, the relative viability came out at 0.0837 in test [3] (first compound 0.5 µM); 0.183 in test [4] (first compound 0.02 µM); 0.188 in test [4] (first compound 0.2 µM); 0.203 in test [4] (first compound 0.6325 µM); 0.188 in test [4] (first compound 2 µM).
